Experimental data from patent US20250032460A1, “METHODS OF TREATING NEUROLOGICAL DISORDERS” (MapLight Therapeutics, Inc., priority 2021, published 2025).
Values joined by “and” are separate entries in the source; they are usually repeats but may differ in a detail not shown here. Identical values can stand only once.

Columns and labels:
[1] = Plasma concentrations during 7-day oral dosing in beagle dogs; type: in vivo; conditions: Group 3: Compound 1 1.5 mg/kg/day PO + fesoterodine fumarate 3 mg/kg/day PO
[2] = Single ascending dose study: pharmacokinetics (plasma, CSF); type: in vivo; conditions: Group 2, fesoterodine fumarate 8 mg 4 hours prior to 40 mg Compound 1
Experimental: Compound 1 was administered in a single ascending dose (SAD) study conducted in approximately 54 healthy adult volunteers to investigate Compound 1 pharmacokinetics, safety, and tolerability. The study was conducted in two groups.
Group 2 evaluated tolerability of Compound 1 at Group 1 MTD with or without fesoterodine fumarate co-administration. Subjects received 8 mg of fesoterodine fumarate tablet or matched placebo tablet 4 hours prior to administration of 40 mg of Compound 1.

[3] = Plasma pharmacokinetics after single-dose intravenous administration in rats; type: in vivo, Sprague Dawley rats; conditions: for AUClast of desfesoterodine / C0 of desfesoterodine: IV
Experimental: The plasma concentration-time profile was evaluated for fesoterodine active metabolite desfesoterodine and Compound 1 in male Sprague Dawley rats following single-dose intravenous administration of fesoterodine (0.25 mg/kg) and Compound 1 (0.5 mg/kg and 1.5 mg/kg) alone and single-dose co-administration. Plasma exposures of desfesoterodine were similar following administration of fesoterodine alone and in combination with Compound 1.

[4] = Fesoterodine: 0.25 + Compound 1: 0.5 mg/kg
[5] = Fesoterodine: 0.25 + Compound 1: 1.5 mg/kg

CC(C)N(CCC(c1ccccc1)c1cc(CO)ccc1O)C(C)C (stereo not shown) [desfesoterodine, 5-hydroxymethyl tolterodine]
Plasma concentration of desfesoterodine, Mean ([1]; Day 1, 0.500 h): 111 ng/mL
Plasma concentration of desfesoterodine, individual animals D3001-D3005 ([1]; Day 1, 0.500 h): 154 ng/mL and 58.0 ng/mL and 257 ng/mL and 35.9 ng/mL and 52.4 ng/mL
Plasma concentration of desfesoterodine, Mean ([1]; Day 1, 0.750 h): 100 ng/mL
Plasma concentration of desfesoterodine, individual animals D3001-D3005 ([1]; Day 1, 0.750 h): 136 ng/mL and 35.1 ng/mL and 203 ng/mL and 64.7 ng/mL and 61.3 ng/mL
Plasma concentration of desfesoterodine, Mean ([1]; Day 1, 1.00 h): 66.6 ng/mL
Plasma concentration of desfesoterodine, individual animals D3001-D3005 ([1]; Day 1, 1.00 h): 96.0 ng/mL and 30.6 ng/mL and 149 ng/mL and 15.8 ng/mL and 41.5 ng/mL
Plasma concentration of desfesoterodine, Mean ([1]; Day 1, 2.00 h): 36.0 ng/mL
Plasma concentration of desfesoterodine, individual animals D3001-D3005 ([1]; Day 1, 2.00 h): 32.4 ng/mL and 17.2 ng/mL and 74.2 ng/mL and 10.7 ng/mL and 45.5 ng/mL
Plasma concentration of desfesoterodine, Mean ([1]; Day 1, 4.00 h): 9.29 ng/mL
Plasma concentration of desfesoterodine, individual animals D3001-D3005 ([1]; Day 1, 4.00 h): 7.08 ng/mL and 3.69 ng/mL and 17.0 ng/mL and 5.38 ng/mL and 13.3 ng/mL
Plasma concentration of desfesoterodine, Mean ([1]; Day 1, 8.00 h): 2.78 ng/mL
Plasma concentration of desfesoterodine, individual animals D3001-D3005 ([1]; Day 1, 8.00 h): 1.41 ng/ml and 4.22 ng/ml and 3.82 ng/ml and BQL and 1.67 ng/ml
Plasma concentration of desfesoterodine, individual animals D3001-D3005 ([1]; Day 1, 24.0 h): BQL
Plasma concentration of desfesoterodine, individual animals D3001-D3005 ([1]; Day 7, 0.00 h): BQL
Plasma concentration of desfesoterodine, Mean ([1]; Day 7, 0.250 h): 183 ng/mL
Plasma concentration of desfesoterodine, individual animals D3001-D3005 ([1]; Day 7, 0.250 h): 29.1 ng/mL and 60.6 ng/mL and 407 ng/mL and 149 ng/mL and 270 ng/mL
Plasma concentration of desfesoterodine, Mean ([1]; Day 7, 0.500 h): 201 ng/mL
Plasma concentration of desfesoterodine, individual animals D3001-D3005 ([1]; Day 7, 0.500 h): 103 ng/mL and 77.7 ng/mL and 318 ng/mL and 197 ng/mL and 311 ng/mL
Plasma concentration of desfesoterodine, Mean ([1]; Day 7, 0.750 h): 148 ng/mL
Plasma concentration of desfesoterodine, individual animals D3001-D3005 ([1]; Day 7, 0.750 h): 84.3 ng/mL and 66.4 ng/mL and 294 ng/mL and 102 ng/mL and 191 ng/mL
Plasma concentration of desfesoterodine, Mean ([1]; Day 7, 1.00 h): 128 ng/mL
Plasma concentration of desfesoterodine, individual animals D3001-D3005 ([1]; Day 7, 1.00 h): 73.5 ng/mL and 64.7 ng/mL and 224 ng/mL and 105 ng/mL and 175 ng/mL
Plasma concentration of desfesoterodine, Mean ([1]; Day 7, 2.00 h): 80.5 ng/mL
Plasma concentration of desfesoterodine, individual animals D3001-D3005 ([1]; Day 7, 2.00 h): 45.8 ng/mL and 42.6 ng/mL and 149 ng/mL and 63.2 ng/mL and 102 ng/mL
Plasma concentration of desfesoterodine, Mean ([1]; Day 7, 4.00 h): 40.2 ng/mL
Plasma concentration of desfesoterodine, individual animals D3001-D3005 ([1]; Day 7, 4.00 h): 52.2 ng/mL and 15.2 ng/mL and 61.6 ng/mL and 31.6 ng/mL and 40.5 ng/mL
Plasma concentration of desfesoterodine, Mean ([1]; Day 7, 8.00 h): 5.93 ng/mL
Plasma concentration of desfesoterodine, individual animals D3001-D3005 ([1]; Day 7, 8.00 h): 10.6 ng/mL and 3.92 ng/mL and 8.16 ng/mL and 2.93 ng/mL and 4.06 ng/mL
Plasma concentration of desfesoterodine, individual animals D3001-D3005 ([1]; Day 7, 24.0 h): BQL
mean desfesoterodine concentration in CSF at 1hour after administration of compound 1 [2]: 121.44 pg/mL
AUClast of desfesoterodine ([3]; Fesoterodine: 0.25 mg/kg alone): 15.41 ng·h/mL
C0 of desfesoterodine ([3]; Fesoterodine: 0.25 mg/kg alone): 27.09 ng/mL
AUClast of desfesoterodine [3, 4]: 13.05 ng·h/mL
C0 of desfesoterodine [3, 4]: 34.63 ng/mL
AUClast of desfesoterodine [3, 5]: 13.73 ng·h/mL
C0 of desfesoterodine [3, 5]: 38.71 ng/mL
plasma exposures of desfesoterodine, fesoterodine alone vs in combination with Compound 1 ([3]; fesoterodine 0.25 mg/kg IV, rats): similar
